From PubChem BioAssay AID330 (DTP/NCI, 2004)
Where “and” joins values, the source holds several entries; their conditions need not be identical. Equal values may be shown once. Toxic doses and inconclusive results are not listed.

System: P388 leukemia ip, CD2F1 mice, survival T/C
Experiment: NCI In Vivo Anticancer Drug Screen. Data for tumor model P388 Leukemia (intraperitoneal) in CD2F1 (CDF1) mice
Details: endpoint: median survival time, higher = longer survival
Summary of the method: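 Mice carrying the transplanted tumor received test compound or vehicle. Survival was recorded in each group, and the value is the treated-group measurement divided by that of the vehicle-treated control group.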

[1] = dose: 50.0 mg/kg/injection, schedule: Q01DX009 (ip), vehicle: saline
[2] = dose: 200.0 mg/kg/injection, schedule: Q01DX009 (ip), vehicle: saline
[3] = dose: 60.0 mg/kg/injection, schedule: Q01DX005 (ip), vehicle: saline with Tween-80
[4] = dose: 120.0 mg/kg/injection, schedule: Q01DX005 (ip), vehicle: saline with Tween-80
[5] = dose: 240.0 mg/kg/injection, schedule: Q01DX005 (ip), vehicle: saline with Tween-80
[6] = dose: 25.0 mg/kg/injection, schedule: Q01DX009 (ip), vehicle: saline
[7] = dose: 12.5 mg/kg/injection, schedule: Q01DX009 (ip), vehicle: saline

CC(N)C(=O)NC(CC(N)=O)C(=O)O (configuration not stated)
T/C (dose: 50.0 mg/kg/injection, schedule: Q01DX005 (ip), vehicle: saline): 105 % of control | T/C [1]: 101 % of control | T/C (dose: 100.0 mg/kg/injection, schedule: Q01DX005 (ip), vehicle: saline): 110 % of control | T/C (dose: 100.0 mg/kg/injection, schedule: Q01DX009 (ip), vehicle: saline): 94 % of control | T/C (dose: 200.0 mg/kg/injection, schedule: Q01DX005 (ip), vehicle: saline): 94 % of control | T/C [2]: 93 % of control

CNC(=O)Nc1nc2ccc([N+](=O)[O-])cc2[nH]1
T/C (dose: 200.0 mg/kg/injection, schedule: Q04DX003 (oral), vehicle: saline with Tween-80): 110 % of control | T/C (dose: 400.0 mg/kg/injection, schedule: Q04DX003 (oral), vehicle: saline with Tween-80): 112 % of control | T/C (dose: 800.0 mg/kg/injection, schedule: Q04DX003 (oral), vehicle: saline with Tween-80): 116 % of control and 121 % of control

COc1cc([N+](=O)[O-])c(S(=O)(=O)O)cc1N
T/C [3]: 99 % of control | T/C [4]: 94 % of control | T/C [5]: 93 % of control

C1CNC2NCCNC2N1 (configuration not stated)
T/C [6]: 118 % of control

CCCCCCCCCCCCCCCCS(=O)(=O)N/N=c1\cc(-c2ccccc2Cl)c2ccccc2n1C
T/C [7]: 92 % of control | T/C [6]: 90 % of control | T/C [1]: 89 % of control and 90 % of control | T/C [2]: 89 % of control

O=c1c2ccc(Cl)cc2nc2nc(-c3ccccc3)c3cc(Cl)ccc3n12
T/C [3]: 107 % of control | T/C [4]: 106 % of control | T/C [5]: 97 % of control

NCC(=O)O.[Cl-].[Cl-].[Cl-].[Cl-].[Pt+2]
T/C [7]: 124 % of control | T/C (dose: 14.7 mg/kg/injection, schedule: Q01DX009 (ip), vehicle: saline): 108 % of control | T/C (dose: 22.0 mg/kg/injection, schedule: Q01DX009 (ip), vehicle: saline): 108 % of control

COc1ccc(C2=C(Cl)C(=O)N(c3ccc(O)cc3)C(=O)C2(Cl)Cl)cc1
T/C (dose: 100.0 mg/kg/injection, schedule: Q04DX002 (ip), vehicle: Klucel (hydroxypropylcellulose) (HPC)): 106 % of control | T/C (dose: 200.0 mg/kg/injection, schedule: Q04DX002 (ip), vehicle: Klucel (hydroxypropylcellulose) (HPC)): 107 % of control | T/C (dose: 400.0 mg/kg/injection, schedule: Q04DX002 (ip), vehicle: Klucel (hydroxypropylcellulose) (HPC)): 116 % of control

O=[N+]([O-])c1cc2no[n+]([O-])c2cc1N1CCOCC1
T/C (dose: 3.75 mg/kg/injection, schedule: Q01DX009 (ip), vehicle: saline): 112 % of control and 88 % of control | T/C (dose: 7.5 mg/kg/injection, schedule: Q01DX009 (ip), vehicle: saline): 101 % of control and 92 % of control | T/C (dose: 15.0 mg/kg/injection, schedule: Q01DX009 (ip), vehicle: saline): 91 % of control and 97 % of control | T/C (dose: 30.0 mg/kg/injection, schedule: Q01DX009 (ip), vehicle: saline): 103 % of control and 96 % of control

Cc1ccn2c(=O)c(Br)c(C)nc2c1
T/C (dose: 100.0 mg/kg/injection, schedule: Q01DX001 (ip), vehicle: saline with Tween-80): 92 % of control | T/C (dose: 200.0 mg/kg/injection, schedule: Q01DX001 (ip), vehicle: saline with Tween-80): 94 % of control | T/C (dose: 400.0 mg/kg/injection, schedule: Q01DX001 (ip), vehicle: saline with Tween-80): 97 % of control

CC(C(=O)O)N1C(=O)c2ccccc2C1=O (configuration not stated)
T/C (dose: 4.0 mg/kg/injection, schedule: Q01DX009 (ip), vehicle: water): 105 % of control | T/C (dose: 8.0 mg/kg/injection, schedule: Q01DX009 (ip), vehicle: water): 100 % of control | T/C (dose: 16.0 mg/kg/injection, schedule: Q01DX009 (ip), vehicle: water): 103 % of control | T/C (dose: 32.0 mg/kg/injection, schedule: Q01DX009 (ip), vehicle: water): 100 % of control | T/C (dose: 64.0 mg/kg/injection, schedule: Q01DX009 (ip), vehicle: water): 99 % of control

Cc1c(-c2ccc(-c3ccccc3F)cc2)nc2ccc(F)cc2c1C(=O)O
T/C (dose: 5.62 mg/kg/injection, schedule: Q01DX005 (ip), vehicle: water): 120 % of control | T/C (dose: 11.25 mg/kg/injection, schedule: Q01DX005 (ip), vehicle: water): 121 % of control | T/C (dose: 45.0 mg/kg/injection, schedule: Q01DX005 (ip), vehicle: water): 157 % of control | T/C (dose: 90.0 mg/kg/injection, schedule: Q01DX005 (ip), vehicle: water): 158 % of control
